Reference: ChEMBL document CHEMBL1926625, “Identification of benzoxazin-3-one derivatives as novel, potent, and selective nonsteroidal mineralocorticoid receptor antagonists” (J Med Chem, 2011)
pIC50: −log10 of the molar value.

Tests used:
Progesterone receptor = target: T1, Progesterone receptor (Homo sapiens, UniProt P06401); experiment: Displacement of [3H]progesterone from PR
T1 sequence (P06401 whole entry): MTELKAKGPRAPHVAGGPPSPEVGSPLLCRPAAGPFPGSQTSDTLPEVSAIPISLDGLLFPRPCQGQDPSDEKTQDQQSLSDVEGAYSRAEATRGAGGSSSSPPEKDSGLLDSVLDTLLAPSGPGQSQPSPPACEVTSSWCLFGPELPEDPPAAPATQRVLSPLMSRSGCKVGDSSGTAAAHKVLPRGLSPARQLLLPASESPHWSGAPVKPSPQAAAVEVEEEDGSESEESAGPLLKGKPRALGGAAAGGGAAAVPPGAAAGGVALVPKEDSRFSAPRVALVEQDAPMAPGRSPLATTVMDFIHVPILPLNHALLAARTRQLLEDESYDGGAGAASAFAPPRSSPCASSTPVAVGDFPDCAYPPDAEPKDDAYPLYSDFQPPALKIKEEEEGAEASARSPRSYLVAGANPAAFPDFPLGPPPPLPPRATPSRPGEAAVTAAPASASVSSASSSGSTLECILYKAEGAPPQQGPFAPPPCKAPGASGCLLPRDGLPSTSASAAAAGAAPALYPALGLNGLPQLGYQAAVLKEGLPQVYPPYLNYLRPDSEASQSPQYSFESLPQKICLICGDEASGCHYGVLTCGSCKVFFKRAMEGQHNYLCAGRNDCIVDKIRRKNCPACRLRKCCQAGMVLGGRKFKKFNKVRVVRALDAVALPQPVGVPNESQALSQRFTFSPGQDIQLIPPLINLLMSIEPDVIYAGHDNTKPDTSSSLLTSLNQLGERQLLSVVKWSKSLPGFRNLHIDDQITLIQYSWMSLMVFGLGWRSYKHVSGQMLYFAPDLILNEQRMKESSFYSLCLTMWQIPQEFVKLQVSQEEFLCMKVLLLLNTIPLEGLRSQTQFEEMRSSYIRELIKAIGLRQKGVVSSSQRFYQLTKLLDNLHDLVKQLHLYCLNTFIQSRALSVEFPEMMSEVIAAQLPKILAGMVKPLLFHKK

Androgen receptor = target: T2, Androgen receptor (Homo sapiens, UniProt P10275); experiment: Displacement of [3H]testosterone from AR
T2 sequence (P10275 whole entry): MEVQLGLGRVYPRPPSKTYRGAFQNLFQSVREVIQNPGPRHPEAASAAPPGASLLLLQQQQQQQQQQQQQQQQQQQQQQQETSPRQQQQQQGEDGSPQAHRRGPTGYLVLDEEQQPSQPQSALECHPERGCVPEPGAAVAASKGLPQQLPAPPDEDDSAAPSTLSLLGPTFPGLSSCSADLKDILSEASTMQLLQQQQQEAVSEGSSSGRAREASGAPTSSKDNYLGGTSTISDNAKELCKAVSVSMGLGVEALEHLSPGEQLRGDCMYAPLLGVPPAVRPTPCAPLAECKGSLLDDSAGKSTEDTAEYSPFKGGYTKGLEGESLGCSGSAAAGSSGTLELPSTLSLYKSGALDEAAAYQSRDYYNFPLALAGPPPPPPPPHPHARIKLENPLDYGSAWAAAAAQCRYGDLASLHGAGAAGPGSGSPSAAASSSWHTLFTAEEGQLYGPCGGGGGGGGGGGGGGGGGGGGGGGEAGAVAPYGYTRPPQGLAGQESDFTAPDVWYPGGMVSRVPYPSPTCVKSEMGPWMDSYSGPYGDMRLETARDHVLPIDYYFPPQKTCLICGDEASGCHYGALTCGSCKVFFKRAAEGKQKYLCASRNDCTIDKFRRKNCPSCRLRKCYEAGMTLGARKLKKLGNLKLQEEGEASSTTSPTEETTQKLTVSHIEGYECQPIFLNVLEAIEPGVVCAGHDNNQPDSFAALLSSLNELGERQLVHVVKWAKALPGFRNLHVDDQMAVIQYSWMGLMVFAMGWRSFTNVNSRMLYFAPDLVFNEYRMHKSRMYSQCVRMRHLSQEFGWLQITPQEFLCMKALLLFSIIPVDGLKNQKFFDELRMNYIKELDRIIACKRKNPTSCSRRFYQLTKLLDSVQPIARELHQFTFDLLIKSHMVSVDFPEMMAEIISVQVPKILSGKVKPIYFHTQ

[1] = target: T3, Mineralocorticoid receptor (Homo sapiens, UniProt P08235); experiment: biochemical
T3 sequence (P08235 whole entry): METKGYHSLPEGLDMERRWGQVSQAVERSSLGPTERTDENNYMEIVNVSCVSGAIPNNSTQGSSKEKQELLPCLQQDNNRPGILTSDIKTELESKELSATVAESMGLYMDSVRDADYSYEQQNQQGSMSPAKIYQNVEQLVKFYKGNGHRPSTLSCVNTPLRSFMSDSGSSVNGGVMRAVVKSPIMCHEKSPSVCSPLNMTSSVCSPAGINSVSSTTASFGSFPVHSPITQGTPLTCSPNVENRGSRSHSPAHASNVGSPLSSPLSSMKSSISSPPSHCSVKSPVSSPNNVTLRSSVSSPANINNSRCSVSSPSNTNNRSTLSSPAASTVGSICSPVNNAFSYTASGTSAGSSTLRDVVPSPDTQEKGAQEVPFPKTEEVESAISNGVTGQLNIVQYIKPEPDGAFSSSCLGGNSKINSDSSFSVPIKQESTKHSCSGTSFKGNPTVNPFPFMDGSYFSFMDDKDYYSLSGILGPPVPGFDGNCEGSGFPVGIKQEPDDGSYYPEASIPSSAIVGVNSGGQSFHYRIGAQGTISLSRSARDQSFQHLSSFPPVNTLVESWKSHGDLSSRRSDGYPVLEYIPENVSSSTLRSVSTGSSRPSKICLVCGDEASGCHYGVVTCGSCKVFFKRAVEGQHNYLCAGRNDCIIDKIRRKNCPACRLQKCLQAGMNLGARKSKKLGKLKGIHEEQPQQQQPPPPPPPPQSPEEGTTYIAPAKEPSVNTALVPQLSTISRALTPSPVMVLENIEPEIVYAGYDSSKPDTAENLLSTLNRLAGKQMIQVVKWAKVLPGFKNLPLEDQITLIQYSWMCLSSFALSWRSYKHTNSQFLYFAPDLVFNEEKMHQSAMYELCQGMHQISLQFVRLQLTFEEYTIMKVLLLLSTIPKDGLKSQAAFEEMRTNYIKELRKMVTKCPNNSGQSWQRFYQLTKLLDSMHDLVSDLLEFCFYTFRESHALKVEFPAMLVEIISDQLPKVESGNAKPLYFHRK
Description: Displacement of [3H]aldosterone from cytosolic human MR expressed in HEK293 cells after 16 hrs by scintillation counting

Glucocorticoid receptor = target: T4, Glucocorticoid receptor (Homo sapiens, UniProt P04150); experiment: Displacement of [3H]dexomethasone from GR
T4 sequence (P04150 whole entry): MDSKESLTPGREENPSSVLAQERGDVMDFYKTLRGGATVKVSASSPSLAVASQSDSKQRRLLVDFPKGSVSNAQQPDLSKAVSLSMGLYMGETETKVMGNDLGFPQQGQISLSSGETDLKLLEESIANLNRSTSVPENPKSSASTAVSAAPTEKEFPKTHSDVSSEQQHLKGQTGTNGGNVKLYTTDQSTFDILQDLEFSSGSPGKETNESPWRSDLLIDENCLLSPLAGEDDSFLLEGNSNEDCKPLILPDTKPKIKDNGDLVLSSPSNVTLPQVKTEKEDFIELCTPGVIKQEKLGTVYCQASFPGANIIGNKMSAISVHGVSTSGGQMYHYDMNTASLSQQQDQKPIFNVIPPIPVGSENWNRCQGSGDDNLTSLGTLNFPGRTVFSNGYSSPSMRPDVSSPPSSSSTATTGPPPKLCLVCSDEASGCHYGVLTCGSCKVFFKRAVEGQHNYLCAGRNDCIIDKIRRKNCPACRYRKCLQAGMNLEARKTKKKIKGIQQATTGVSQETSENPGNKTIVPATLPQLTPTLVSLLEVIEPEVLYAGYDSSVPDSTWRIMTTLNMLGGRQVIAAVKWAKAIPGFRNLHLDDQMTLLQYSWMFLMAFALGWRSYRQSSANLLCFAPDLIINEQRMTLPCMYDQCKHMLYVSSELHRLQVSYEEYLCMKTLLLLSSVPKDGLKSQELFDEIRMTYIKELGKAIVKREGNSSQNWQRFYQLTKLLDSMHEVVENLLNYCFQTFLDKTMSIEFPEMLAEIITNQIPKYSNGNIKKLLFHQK

[2] = Clearance in rat liver microsomes at 1 umol/L preincubated for 5 mins measured after 60 mins by UV analysis; type: ADME, Microsome
[3] = target: T3, Mineralocorticoid receptor
Description: Antagonist activity at human MR transfected in human COS1 cells after 1 day by luciferase reporter gene assay

[4] = Bioavailability in Sprague-Dawley rat at 3 mg/kg, iv and 10 mg/kg, po; type: ADME, organism-based; settings: in vivo

## O=C1COc2ccc(C3=Nn4ccnc4SC3c3ccccc3)cc2N1 (configuration not stated)
Progesterone receptor
  pIC50: 6.46
Androgen receptor
  pIC50: 7.02
[1]
  pIC50: 7.44
Glucocorticoid receptor
  pIC50: 5.46

## Cc1nc(-c2ccc3c(c2)NC(=O)CO3)c(-c2ccccc2)[nH]1
[1]
  pIC50: < 5.00

## Cc1ccc(-n2nc(C(F)(F)F)cc2-c2ccc3c(c2)NC(=O)CO3)cc1
[1]
  pIC50: 6.23

## CCCC1Sc2nncn2N=C1c1ccc2c(c1)NC(=O)CO2 (configuration not stated)
[1]
  pIC50: 5.39

## Cc1cc(-c2ccc3c(c2)NC(=O)CO3)n(-c2ccc(F)cc2)n1
Progesterone receptor
  pIC50: < 5.00
Androgen receptor
  pIC50: < 5.00
[2]
  microsomal CLint at 1 µM: 164 µL/min/mg
[1]
  pIC50: 5.96
Glucocorticoid receptor
  pIC50: 5.16

## CCc1cc(-c2ccc3c(c2)NC(=O)CO3)n(-c2ccc(F)cc2)n1
[1]
  pIC50: 6.02

## Cc1cc(F)ccc1-n1nc(C(F)(F)F)cc1-c1cc(F)c2c(c1)NC(=O)CO2
Progesterone receptor
  pIC50: 5.74
Androgen receptor
  pIC50: < 5.00
[1]
  pIC50: 7.12
[3]
  pIC50: 7.07
Glucocorticoid receptor
  pIC50: 5.77

## O=C1COc2ccc(C3=Nn4cnnc4SC3c3ccccc3F)cc2N1 (configuration not stated)
Progesterone receptor
  pIC50: < 5.00
Androgen receptor
  pIC50: 5.23
[1]
  pIC50: 6.22
Glucocorticoid receptor
  pIC50: 5.26

## O=C1COc2ccc(-c3cc(C(F)(F)F)nn3-c3ccccc3F)cc2N1
[1]
  pIC50: 6.36

## O=C1COc2ccc(C3=Nn4cnnc4SC3c3ccccc3)cc2N1 (configuration not stated)
Progesterone receptor
  pIC50: < 5.00
Androgen receptor
  pIC50: 5.44
Glucocorticoid receptor
  pIC50: 5.25

## N#Cc1cc(-c2ccc3c(c2)NC(=O)CO3)n(-c2ccc(F)cc2)n1
[1]
  pIC50: 6.04

## O=C1COc2ccc(C3=Nn4cnnc4SC3c3cccc(F)c3)cc2N1 (configuration not stated)
Progesterone receptor
  pIC50: < 5.00
Androgen receptor
  pIC50: 5.33
[1]
  pIC50: 6.51
Glucocorticoid receptor
  pIC50: < 5.00

## CC1(c2ccccc2)Sc2nncn2N=C1c1ccc2c(c1)NC(=O)CO2 (configuration not stated)
[1]
  pIC50: < 5.00

## Cc1cc(F)ccc1-n1nc(C(F)(F)F)cc1-c1cc(Cl)c2c(c1)NC(=O)CO2
Progesterone receptor
  pIC50: 6.03
Androgen receptor
  pIC50: 5.35
[1]
  pIC50: 7.92
[3]
  pIC50: 7.15
Glucocorticoid receptor
  pIC50: 6.70

## O=C1COc2ccc(-c3cc(C(F)(F)F)nn3-c3ccc(Cl)cc3)cc2N1
[1]
  pIC50: 6.49

## Cc1cc(F)ccc1-n1nc(C(F)(F)F)cc1-c1cc(C)c2c(c1)NC(=O)CO2
Progesterone receptor
  pIC50: 5.62
Androgen receptor
  pIC50: < 5.00
[1]
  pIC50: 7.68
[3]
  pIC50: 7.82
Glucocorticoid receptor
  pIC50: 6.33

## O=C1COc2ccc(C3=Nn4cnnc4SC3)cc2N1
Progesterone receptor
  pIC50: 5.80
Androgen receptor
  pIC50: < 5.00
[1]
  pIC50: 5.70
Glucocorticoid receptor
  pIC50: < 5.00

## CCc1ccccc1-n1nc(C(F)(F)F)cc1-c1ccc2c(c1)NC(=O)CO2
[1]
  pIC50: 6.15

## CC(C)c1cc(-c2ccc3c(c2)NC(=O)CO3)n(-c2ccc(F)cc2)n1
[1]
  pIC50: < 5.00

## O=C1COc2ccc(-c3cc(C(F)(F)F)nn3-c3cccc(F)c3)cc2N1
[1]
  pIC50: 5.96

## O=C1COc2ccc(-c3c(C(F)(F)F)cnn3-c3ccc(F)cc3)cc2N1
[1]
  pIC50: 5.57

## O=C1COc2ccc(C3=Nn4cnnc4SC3c3ccc(F)cc3)cc2N1 (configuration not stated)
Progesterone receptor
  pIC50: < 5.00
Androgen receptor
  pIC50: < 5.00
[2]
  microsomal CLint at 1 µM: 60 µL/min/mg
[1]
  pIC50: 6.57
Glucocorticoid receptor
  pIC50: < 5.00

## Cc1nc(-c2ccc3c(c2)NC(=O)CO3)c(-c2ccccc2)s1
[1]
  pIC50: < 5.00

## O=C1COc2ccc(-c3cc(C(F)(F)C(F)(F)F)nn3-c3ccc(F)cc3)cc2N1
[1]
  pIC50: 6.24

## O=C1COc2ccc(-c3cc(CO)nn3-c3ccc(F)cc3)cc2N1
[1]
  pIC50: 5.17

## O=C1COc2ccc(-c3cc(C(F)(F)F)nn3-c3ccc(F)cc3)cc2N1
[2]
  microsomal CLint at 1 µM: 24 µL/min/mg
[4]
  bioavailability: 28%
[1]
  pIC50: 6.59

## O=C1COc2ccc(C3=Nn4cnnc4SC3Cc3ccccc3)cc2N1 (configuration not stated)
[1]
  pIC50: 5.89

## Cc1ccccc1-n1nc(C(F)(F)F)cc1-c1ccc2c(c1)NC(=O)CO2
Progesterone receptor
  pIC50: 5.31
Androgen receptor
  pIC50: < 5.00
[1]
  pIC50: 7.10
[3]
  pIC50: 6.82
Glucocorticoid receptor
  pIC50: 5.60

## O=C1COc2ccc(C3=Nc4ccccc4SC3c3ccccc3)cc2N1 (configuration not stated)
Progesterone receptor
  pIC50: 5.85
Androgen receptor
  pIC50: 5.92
[1]
  pIC50: 7.16
Glucocorticoid receptor
  pIC50: 6.02

## Cc1cc(-c2ccc3c(c2)NC(=O)CO3)n(-c2ccccc2)n1
Progesterone receptor
  pIC50: < 5.00
Androgen receptor
  pIC50: < 5.00
[1]
  pIC50: 5.28
Glucocorticoid receptor
  pIC50: < 5.00

## O=C1COc2ccc(-c3cc(C(F)(F)F)nn3-c3ccccc3Cl)cc2N1
[1]
  pIC50: 6.37
